Data on two molecules can be found in ChEMBL document CHEMBL2074125 (Drug Metabol Pharmacokin, 2002).

Broadly, the IC50 is the midpoint of a concentration-inhibition curve. Read a low IC50 as greater potency.

The structures appear in SMILES notation.

Series [1] addresses T1, Solute carrier family 22 member 6 (Rattus norvegicus, UniProt O35956).
T1 sequence (O35956 whole entry): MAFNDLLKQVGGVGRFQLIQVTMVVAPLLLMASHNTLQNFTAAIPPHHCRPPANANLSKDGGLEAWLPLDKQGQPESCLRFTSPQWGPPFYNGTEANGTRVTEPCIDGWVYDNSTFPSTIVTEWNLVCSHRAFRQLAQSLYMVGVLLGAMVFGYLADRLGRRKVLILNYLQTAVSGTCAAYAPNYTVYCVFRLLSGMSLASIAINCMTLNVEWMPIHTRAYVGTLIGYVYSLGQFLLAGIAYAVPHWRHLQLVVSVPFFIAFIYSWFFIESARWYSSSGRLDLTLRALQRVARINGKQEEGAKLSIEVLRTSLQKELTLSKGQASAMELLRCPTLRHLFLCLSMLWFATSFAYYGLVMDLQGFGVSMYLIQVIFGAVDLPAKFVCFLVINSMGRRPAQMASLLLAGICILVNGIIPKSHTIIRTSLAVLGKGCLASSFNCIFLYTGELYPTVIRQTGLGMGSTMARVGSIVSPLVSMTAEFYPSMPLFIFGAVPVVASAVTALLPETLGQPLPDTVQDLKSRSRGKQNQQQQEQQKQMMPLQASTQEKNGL
Nature of the series: TP_TRANSPORTER: inhibition of PAH uptake in Xenopus laevis oocytes. Type of series: functional, cell-based, Oocyte.

Series [2] addresses T1, Solute carrier family 22 member 6. Nature of the series: TP_TRANSPORTER: uptake in Xenopus laevis oocytes. Format: functional, cell-based. The following applies: oocyte.

For `CN(C)CCn1nnnc1SCC1=C(C(=O)O)N2C(=O)[C@@H](NC(=O)Cc3csc(N)n3)[C@H]2SC1` [CEFOTIAM], the IC50 in series [1] is 718 µM. In series [2], the Activity entry was “substrate [+]”.

Take `CC1=C(C(=O)O)N2C(=O)[C@@H](NC(=O)[C@H](N)c3ccccc3)[C@H]2SC1` [CEPHALEXIN ANHYDROUS]: the Activity result in series [2] was “substrate [+]”.
